The values below are quoted from earlier work in paper PMC12690571, “Green Synthesis of a Hyaluronan-Based Multimeric A9 Peptide System: Polysaccharide-A9 Conjugate with Enhanced HER2 Receptor Binding Affinity and Potential Biomedical Applications as an Active Material” (Biomacromolecules, 2025).

The series deals with HER2 receptor. Details: method as in not printed at the place. The following applies: A9 peptide; introduction, earlier work, ref not given.

Consider H-QDVNTAVAW-NH2 [A9], for which the “binding affinity to HER2 receptor (in words)” value is listed as “binds with high affinity”.
